What was measured:
Format in all cases: biochemical
PIM1 = PIM1 (Homo sapiens, UniProt P11309); assay: Kinase panel screen and IC50
From the text: (§1) Figure 7 (see also Table S4) summarizes the results of this assay as a histogram plotting the percentage of the remaining enzyme activity (x-axis) as a function of added lead compound (HL^8: blue trace, 8: red trace) for each of the 50 enzymes assayed (y-axis). […] Thus, the coordination to copper(II) completely changes the kinase inhibition profile of HL^8.
(§2) Figure 7 Screening of HL^8 and 8 against 50 enzymes: histogram with % remaining activity on the x-axis plotted against the compound identifier (blue trace: HL^8 and red trace: 8) and enzyme identifier on the […]. The screen was carried out at a compound concentration of 10 μM, an enzyme concentration of 50 nM, and an ATP concentration of 100 μM.
(§3) Both compounds were screened against the respective enzymes, and IC50 values were determined.
(§4) All kinase assays were carried out using Multidrop 384’s at room temperature in a total assay volume of 25.5 μL. To plates containing 0.5 μL of HL^8 and 8, DMSO control or acid blank […], 15 μL of an enzyme mix containing enzyme […], and excess peptide/protein substrate in buffer was added. Compounds were pre-incubated in the presence of the enzyme and peptide/protein substrate for 5 min before initiation of the reaction by addition of 10 μL of ATP (final concentration selected for each kinase at 5, 20, or 50 μM). Assays were carried out for 30 min at room temperature before termination by the addition of 5 μL of orthophosphoric acid. The assay plates were then harvested onto P81 Unifilter Plates by a PerkinElmer Harvester and air dried. The dry Unifilter plates were then sealed on the addition of MicroScint O and were counted in PerkinElmer Topcount scintillation counters.
(§5) IC50 values were determined by the International Centre for Kinase Profiling at the University of Dundee according to standard protocols published elsewhere.[109],[110]

PKA = PKA (Homo sapiens, UniProt P17612); assay: Kinase panel screen and IC50
From the text: as §1, §2, §3, §4, §5

CaMK-1 = CaMK-1 (Homo sapiens, UniProt Q14012); assay: Kinase panel screen and IC50
From the text: as §1, §2, §3, §4, §5

MSK1 = MSK1 (Homo sapiens, UniProt O75582); assay: Kinase panel screen and IC50
MSK1, sequence (O75582 whole entry): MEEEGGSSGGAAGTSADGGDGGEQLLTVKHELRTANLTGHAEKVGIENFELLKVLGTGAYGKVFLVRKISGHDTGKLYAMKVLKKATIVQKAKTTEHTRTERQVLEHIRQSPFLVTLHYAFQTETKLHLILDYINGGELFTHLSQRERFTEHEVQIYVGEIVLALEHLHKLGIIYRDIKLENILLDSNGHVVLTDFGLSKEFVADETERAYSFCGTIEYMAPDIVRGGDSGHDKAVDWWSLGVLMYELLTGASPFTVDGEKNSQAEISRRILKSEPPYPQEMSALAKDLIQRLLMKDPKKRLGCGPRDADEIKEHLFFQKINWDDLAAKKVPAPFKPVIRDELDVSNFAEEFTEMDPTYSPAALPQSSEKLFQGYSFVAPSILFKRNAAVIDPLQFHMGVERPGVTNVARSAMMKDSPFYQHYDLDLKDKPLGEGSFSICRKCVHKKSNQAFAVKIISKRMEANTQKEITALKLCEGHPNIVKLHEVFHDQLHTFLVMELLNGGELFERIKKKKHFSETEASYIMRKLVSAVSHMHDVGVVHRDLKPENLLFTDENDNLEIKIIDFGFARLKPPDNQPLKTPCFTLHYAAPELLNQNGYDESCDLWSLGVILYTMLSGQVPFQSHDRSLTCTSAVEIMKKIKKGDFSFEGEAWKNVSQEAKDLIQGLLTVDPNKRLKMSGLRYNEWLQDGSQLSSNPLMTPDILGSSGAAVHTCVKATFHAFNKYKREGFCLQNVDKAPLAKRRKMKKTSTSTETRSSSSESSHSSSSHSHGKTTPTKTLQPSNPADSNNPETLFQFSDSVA
From the text: as §1, §2, §3, §4, §5

SGK-1 = SGK-1 (Homo sapiens, UniProt O00141); assay: Kinase panel screen and IC50
SGK-1, sequence (O00141 whole entry): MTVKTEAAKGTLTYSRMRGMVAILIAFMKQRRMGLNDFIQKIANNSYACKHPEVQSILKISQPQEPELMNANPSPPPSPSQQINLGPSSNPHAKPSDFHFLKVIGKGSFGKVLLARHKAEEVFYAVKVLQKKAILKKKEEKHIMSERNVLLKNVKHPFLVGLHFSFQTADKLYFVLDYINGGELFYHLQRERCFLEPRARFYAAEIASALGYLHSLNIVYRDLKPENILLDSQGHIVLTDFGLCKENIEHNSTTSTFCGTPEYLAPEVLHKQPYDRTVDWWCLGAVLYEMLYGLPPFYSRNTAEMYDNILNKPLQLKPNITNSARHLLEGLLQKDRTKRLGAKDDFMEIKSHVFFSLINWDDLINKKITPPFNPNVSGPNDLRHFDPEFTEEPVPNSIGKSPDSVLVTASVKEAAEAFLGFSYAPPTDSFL
From the text: as §1, §2, §3, §4, §5

GSK3β = GSK3β (Homo sapiens, UniProt P49841); assay: Kinase panel screen and IC50
GSK3β, sequence (P49841 whole entry): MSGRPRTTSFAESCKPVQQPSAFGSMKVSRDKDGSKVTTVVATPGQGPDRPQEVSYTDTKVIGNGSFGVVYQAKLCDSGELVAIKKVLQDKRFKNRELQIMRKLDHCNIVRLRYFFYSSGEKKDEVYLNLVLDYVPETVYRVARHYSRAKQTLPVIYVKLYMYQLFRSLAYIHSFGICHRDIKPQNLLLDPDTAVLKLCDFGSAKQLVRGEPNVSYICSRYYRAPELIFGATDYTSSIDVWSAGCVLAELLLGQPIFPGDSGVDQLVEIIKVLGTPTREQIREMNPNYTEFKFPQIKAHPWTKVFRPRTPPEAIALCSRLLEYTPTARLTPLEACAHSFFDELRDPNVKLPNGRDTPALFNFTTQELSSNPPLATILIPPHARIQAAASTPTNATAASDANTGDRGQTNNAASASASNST
From the text: as §1, §2, §3, §4, §5

BTK = BTK (Homo sapiens, UniProt Q06187); assay: Kinase panel screen; conditions: 10 µM compound
BTK, sequence (Q06187 whole entry): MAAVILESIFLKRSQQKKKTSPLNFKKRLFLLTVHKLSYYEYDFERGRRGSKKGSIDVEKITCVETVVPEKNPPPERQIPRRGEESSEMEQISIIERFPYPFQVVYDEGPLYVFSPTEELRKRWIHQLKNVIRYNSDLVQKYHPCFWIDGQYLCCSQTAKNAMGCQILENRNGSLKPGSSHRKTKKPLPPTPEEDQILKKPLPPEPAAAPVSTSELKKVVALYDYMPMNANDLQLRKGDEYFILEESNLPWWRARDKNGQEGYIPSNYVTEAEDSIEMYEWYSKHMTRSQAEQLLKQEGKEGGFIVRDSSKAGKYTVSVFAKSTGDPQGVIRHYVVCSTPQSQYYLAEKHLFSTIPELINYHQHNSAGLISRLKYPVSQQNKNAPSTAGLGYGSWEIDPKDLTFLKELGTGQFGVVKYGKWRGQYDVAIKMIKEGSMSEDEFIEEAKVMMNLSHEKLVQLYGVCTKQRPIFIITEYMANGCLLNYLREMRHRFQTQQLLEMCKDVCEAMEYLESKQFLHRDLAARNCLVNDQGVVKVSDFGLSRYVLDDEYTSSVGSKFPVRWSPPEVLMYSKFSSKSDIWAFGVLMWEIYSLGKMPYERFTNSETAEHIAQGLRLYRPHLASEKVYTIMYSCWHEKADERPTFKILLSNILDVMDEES
From the text: as §1, §2, §4

PRK2 = PRK2 (Homo sapiens, UniProt Q16513); assay: Kinase panel screen; conditions: 10 µM compound
From the text: as §1, §2, §4

p38a MAPK = p38a MAPK (Homo sapiens, UniProt Q16539); assay: Kinase panel screen; conditions: 10 µM compound
p38a MAPK, sequence (Q16539 whole entry): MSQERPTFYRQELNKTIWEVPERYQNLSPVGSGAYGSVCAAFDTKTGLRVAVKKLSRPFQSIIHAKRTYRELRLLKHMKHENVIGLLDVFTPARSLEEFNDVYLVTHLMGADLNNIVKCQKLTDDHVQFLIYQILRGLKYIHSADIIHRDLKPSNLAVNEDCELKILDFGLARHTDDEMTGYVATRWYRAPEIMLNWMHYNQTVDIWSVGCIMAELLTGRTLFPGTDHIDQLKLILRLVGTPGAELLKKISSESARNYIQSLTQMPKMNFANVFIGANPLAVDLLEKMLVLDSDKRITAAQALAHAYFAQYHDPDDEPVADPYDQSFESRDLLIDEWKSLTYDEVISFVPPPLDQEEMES
From the text: as §1, §2, §4

NEK6 = NEK6 (Homo sapiens, UniProt Q9HC98); assay: Kinase panel screen; conditions: 10 µM compound
NEK6, sequence (Q9HC98 whole entry): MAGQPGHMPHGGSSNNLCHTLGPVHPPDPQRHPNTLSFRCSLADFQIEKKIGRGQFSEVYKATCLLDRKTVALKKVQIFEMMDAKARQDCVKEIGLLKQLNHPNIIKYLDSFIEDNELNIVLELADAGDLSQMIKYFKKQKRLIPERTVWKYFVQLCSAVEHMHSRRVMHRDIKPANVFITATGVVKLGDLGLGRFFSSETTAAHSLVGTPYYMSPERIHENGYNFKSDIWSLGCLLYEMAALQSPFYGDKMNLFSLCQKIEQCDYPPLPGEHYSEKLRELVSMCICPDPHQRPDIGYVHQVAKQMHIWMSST
From the text: as §1, §2, §4

JNK1 = JNK1 (Homo sapiens, UniProt P45983); assay: Kinase panel screen; conditions: 10 µM compound
JNK1, sequence (P45983 whole entry): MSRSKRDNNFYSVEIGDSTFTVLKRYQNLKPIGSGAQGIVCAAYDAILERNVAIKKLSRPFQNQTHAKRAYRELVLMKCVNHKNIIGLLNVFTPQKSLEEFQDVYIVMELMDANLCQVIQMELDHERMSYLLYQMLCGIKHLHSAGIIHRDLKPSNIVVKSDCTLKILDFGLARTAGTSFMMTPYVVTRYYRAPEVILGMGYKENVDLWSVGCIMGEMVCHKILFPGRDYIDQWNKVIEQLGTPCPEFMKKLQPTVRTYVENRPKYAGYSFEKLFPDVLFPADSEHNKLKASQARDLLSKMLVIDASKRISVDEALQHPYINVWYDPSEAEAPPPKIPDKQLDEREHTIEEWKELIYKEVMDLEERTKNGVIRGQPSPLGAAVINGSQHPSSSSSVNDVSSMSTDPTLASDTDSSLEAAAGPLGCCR
From the text: as §1, §2, §4

HER4 = HER4 (Homo sapiens, UniProt Q15303); assay: Kinase panel screen; conditions: 10 µM compound
HER4, sequence (Q15303 26-1308): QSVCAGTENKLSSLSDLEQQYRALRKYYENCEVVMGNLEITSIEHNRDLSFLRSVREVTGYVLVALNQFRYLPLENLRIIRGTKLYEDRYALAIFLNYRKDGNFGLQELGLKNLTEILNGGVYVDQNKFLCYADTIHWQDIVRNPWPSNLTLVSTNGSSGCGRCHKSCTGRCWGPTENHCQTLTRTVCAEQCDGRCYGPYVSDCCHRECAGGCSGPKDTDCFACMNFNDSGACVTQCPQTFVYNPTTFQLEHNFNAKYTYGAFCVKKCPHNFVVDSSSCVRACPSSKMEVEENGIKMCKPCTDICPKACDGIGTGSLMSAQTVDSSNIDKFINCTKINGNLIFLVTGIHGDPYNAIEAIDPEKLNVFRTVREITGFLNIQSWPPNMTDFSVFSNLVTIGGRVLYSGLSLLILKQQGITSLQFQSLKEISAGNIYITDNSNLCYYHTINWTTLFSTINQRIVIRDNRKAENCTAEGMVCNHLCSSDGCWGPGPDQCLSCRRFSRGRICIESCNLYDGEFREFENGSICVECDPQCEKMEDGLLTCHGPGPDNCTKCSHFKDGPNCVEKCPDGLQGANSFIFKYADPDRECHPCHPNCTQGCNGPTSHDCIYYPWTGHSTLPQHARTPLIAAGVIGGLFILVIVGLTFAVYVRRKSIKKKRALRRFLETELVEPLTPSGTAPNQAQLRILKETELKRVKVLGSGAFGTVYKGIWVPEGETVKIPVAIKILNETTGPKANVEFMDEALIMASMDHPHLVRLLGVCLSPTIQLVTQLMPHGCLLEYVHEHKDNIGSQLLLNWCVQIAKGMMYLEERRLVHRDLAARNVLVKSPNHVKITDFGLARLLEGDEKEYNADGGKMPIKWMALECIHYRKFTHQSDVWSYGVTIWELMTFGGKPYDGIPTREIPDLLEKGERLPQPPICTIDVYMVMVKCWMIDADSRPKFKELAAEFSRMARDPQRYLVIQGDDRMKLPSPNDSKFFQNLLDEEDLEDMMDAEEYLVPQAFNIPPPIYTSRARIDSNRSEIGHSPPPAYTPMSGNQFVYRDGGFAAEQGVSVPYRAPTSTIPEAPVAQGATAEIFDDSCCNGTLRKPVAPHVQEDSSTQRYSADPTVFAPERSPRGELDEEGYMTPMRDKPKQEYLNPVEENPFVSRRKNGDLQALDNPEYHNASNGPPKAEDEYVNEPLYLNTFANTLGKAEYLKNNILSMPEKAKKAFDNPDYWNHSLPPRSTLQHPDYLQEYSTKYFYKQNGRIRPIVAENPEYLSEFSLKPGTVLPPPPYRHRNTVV
From the text: as §1, §2, §4

PKBa = PKBa (Homo sapiens, UniProt P31749); assay: Kinase panel screen; conditions: 10 µM compound
From the text: as §1, §2, §4

PIM1, sequence (P11309 whole entry): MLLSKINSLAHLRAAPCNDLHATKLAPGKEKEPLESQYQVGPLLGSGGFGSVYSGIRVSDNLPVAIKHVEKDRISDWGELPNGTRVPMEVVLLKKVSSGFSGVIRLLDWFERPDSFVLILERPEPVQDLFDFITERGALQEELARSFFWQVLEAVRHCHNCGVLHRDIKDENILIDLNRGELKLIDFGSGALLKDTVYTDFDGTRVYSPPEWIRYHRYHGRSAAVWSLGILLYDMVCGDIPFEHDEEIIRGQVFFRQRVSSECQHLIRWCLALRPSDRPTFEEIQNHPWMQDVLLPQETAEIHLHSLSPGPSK

CC(=NNc1nc2ccccc2c2c1[nH]c1ccc(Br)cc12)c1ccc(CN2CCOCC2)cn1.[Cl][Cu][Cl] [compound 8, CuCl2(HL^8)·H2O]
IC50 against PIM-1 (PIM1): did not register binding | % remaining activity (PIM1; PIM1, 10 µM compound): 72% | % remaining activity (PKA; PKA, 10 µM compound): 10% | IC50 (PKA; read-out: IC50 against PKA): 6690 nM | % remaining activity (CaMK-1; CaMK-1, 10 µM compound): 9% | IC50 (CaMK-1; read-out: IC50 against CaMK-1): 750 nM | % remaining activity (MSK1; MSK1, 10 µM compound): 17% | IC50 (MSK1; read-out: IC50 against MSK1): 2970 nM | % remaining activity (SGK-1; SGK-1, 10 µM compound): 5% | IC50 (SGK-1; read-out: IC50 against SGK-1): 8450 nM | % remaining activity (GSK3β; GSK3β, 10 µM compound): 32% | IC50 (GSK3β; read-out: IC50 against GSK3β): 1640 nM | % remaining activity (BTK): 61% | % remaining activity (PRK2): 38% | % remaining activity (p38a MAPK): 123% | % remaining activity (NEK6): 43% | % remaining activity (JNK1): 134% | % remaining activity (HER4): 71% | % remaining activity (PKBa): 82%
